In US5292498A, “Method of treating lung disease with uridine triphosphates” (The University of North Carolina At Chapel Hill, priority 1991, dated 1994):

Experiments:
[1] = tested on: CF human nasal epithelium; experiment: Bioelectric studies (Isc) of cystic fibrosis (CF) human nasal epithelium; assay type: cell-based; conditions: for Isc response tracing: 10^-4 M, amiloride-pretreated (10^-4 M)
Description: (§1) Freshly excised human nasal epithelium from normal or cystic fibrosis subjects was grown in primary culture in F-12, hormone-supplemented medium in accordance with known procedures. See R. Wu et al., Am. Rev. Respir. Dis. 132, 311-320 (1985). For [Ca^2+ ]i measurements, cultures were grown on non-fluorescent vitrogen substrates on glass coverslips. Cultures for electrophysiologic studies were grown to confluence on permeable collagen matrix supports (CMS), allowing addition of agonists to the basolateral or apical surface of the epithelial sheet.
Confluent monolayers of primary human nasal epithelium were mounted in modified Ussing chambers in accordance with known procedures. See, e.g., R. Boucher et al., J. Physiol. (Lond.) 405, 77-103 (1988); M. Knowles et al., Science 221, 1067-1070 (1983). The studies described below were performed under short circuit current conditions at 37° C., and in some studies, amiloride was added to the apical bath (10^-4 M) to block transepithelial sodium transport. Changes in transepithelial potential difference (Vt), resistance (Rt) and short circuit current (Isc) were measured in response to addition of various nucleotides. Each cultured preparation was exposed to only one concentration of an agonist on either the basolateral or apical surface to avoid the tachyphylaxis observed in preliminary cumulative dose response studies. To construct concentration-effect relationships of responses to nucleotides, it was assumed that the same maximum response to an agonist could be induced from each tissue culture preparation from the same individual.
The purinergic receptor subtype(s) linked to regulation of ion transport of human nasal epithelium were characterized by obtaining concentration-effect relationships for a variety of purine and pyrimidine agonists in preparations derived from normal and CF patients. We characterized receptor subtype(s) on the […] surface by measuring nucleotide effect on basal Na^+ transport rates. Because therapies designed to induce Cl^- secretion might best be delivered by the aerosol route, receptor subtype characterization on the apical barrier was performed in the presence of amiloride. The effect of extracellular nucleotides on ion transport is reported as the percent change in Isc from control values when applied to the basolateral or apical surface of the culture. Basal pre-agonist currents were similar for tissues in each concentration group.
Availability of Cystic Fibrosis (CF) tissues is limited, and our investigation of effects of nucleotides was restricted to examining regulation of Cl^- secretion rates and [Ca^2+ ]i levels by ATP and UTP.

[2] = tested on: normal human nasal epithelial cells; experiment: Intracellular calcium [Ca^2+ ]i in single normal human nasal epithelial cells (Fura-2); assay type: cell-based
Description: as §1
Primary human nasal epithelial cells grown to confluence on vitrogen coated coverslips were loaded with a final concentration of 3 μM Fura-2/AM at 37° C. for 30 minutes. The cells were then washed in NaCl Ringer and mounted in a chamber for measurements of fluorescence. To reduce the rate of leakage of Fura-2 from the cell into the extracellular space and avoid time-dependent compartmentalization of the probe, all measurements of [Ca^2+ ]i were performed at 25° C. At this temperature,no vesicular bright spots indicative of compartmentalization of the probe were observed.
Measurements of [Ca^2+ ]i in single human nasal epithelial cells were obtained with a modular microspectrofluorimeter (SPEX Industries, Inc., Edison, N.J.) attached to a Zeiss Axiovert IM 35 microscope. The system was equipped with a xenon lamp, beam splitter, two monochromators and a rotating chopper mirror that permitted excitation of cell fluorescence at alternating wavelengths of 340 and 380 nm (emission ≥450 nm). The fluorescent signal from a single cell was measured with a photometer equipped with a pinhole (spot diameter of 3-5 μm) that excluded signals from adjacent cells.
After agonist was added, the fluorescent signal was quenched by a NaCl ringer solution containing 1.5×10^-4 M digitonin and 10^-3 M MnCl2. The remaining signal at each excitation wavelength, equivalent to the background fluorescence in non loaded cells, was subtracted from data from Fura-2/AM loaded cells before the ratio (340 nm/380 nm) was taken. The 340 nm/380 nm ratio was converted to an actual [Ca^2+ ]i measurement by using the external calibration standards and the formula derived by G. Grynkiewicz et al., J. Biol. Chem. 260, 3440-3450 (1985), used with dual wavelength measurements: [Ca^2+ ]i =K [(Rx --Ro)/(Rs --Rx)], with Ro and Rs representing the ratios at 0 Ca^2+ and saturating Ca^2+, respectively. Rx represents the experimental ratio.
To investigate whether changes in [Ca^2+ ]i might be related to regulation of ion transport, receptor characterization was performed by measuring changes in [Ca^2+ ]i in response to a number of nucleotide drugs. Concentration-effect curves for agonists active at P2x, P2y subtype or UTP sensitive receptors and other purine or pyrimidine receptor agonists were generated, measuring mean change in [Ca^2+ ]i in response to agonist concentration. Data are shown in FIG. 3, which gives log concentration-effect relationships of purinergic and pyrimidinergic compounds on [Ca^2+ ]i (mean change in [Ca^2+ ]i over basal levels).

## Nc1ncnc2c1ncn2[C@@H]1O[C@H](COP(=O)(O)OP(=O)(O)OP(=O)(O)O)[C@@H](O)[C@H]1O [ATP, adenosine triphosphate]
[1]; apical surface, FIG. 4A
  Isc response tracing: Cl^- secretion in response to ATP
[1]; apical surface, FIG. 4B
  Isc response tracing: opposite polarity
[1]; Homo sapiens, read-out: maximum mean % change in Isc
  Emax: 14 ± 3%
[1]; apical surface, amiloride-pretreated CF tissues
  change in Isc over basal levels: Most tissues exhibited an increase in Isc over basal levels
[1]; apical, amiloride-pretreated CF tissues
  pattern of Isc response: two distinct patterns of response
[1]; apical, amiloride-pretreated CF tissues, FIG. 4B
  CF tissues responding with a change to opposite polarity of Isc: approximately 30%
[1]; basolateral addition, CF tissues
  Cl^- secretion (amiloride-resistant Isc): Only small changes in Cl^- secretion
[2]; Ca^2+ -free medium
  [Ca^2+ ]i response in Ca^2+ -free medium: initial sharp increase in [Ca^2+ ]i
  time for [Ca^2+ ]i to return to baseline: two
[2]; concentration-effect curves, FIG. 3
  effectiveness for raising [Ca^2+ ]i: most effective agonists
[2]; extracellular application, Ca^2+ -containing solution
  [Ca^2+ ]i response: immediate increase in [Ca^2+ ]i levels
[2]; return of cells to Ca^2+ -containing solution
  plateau phase on return to Ca^2+ -containing solution: restoration of the plateau phase
